outcome, EC50 and IC50 data for 70 molecules are collected here from PubChem BioAssay AID179 (DTP/NCI, 2004).

Activity calls are given as the source filed them.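 How the source made its calls: active means compounds giving half or more protection of infected cells from virus-caused growth loss, again on retest; inactive means the rest.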

For this assay, the system named is CEM cells HIV-1 protection, formazan growth assay. Put plainly: NCI AIDS Antiviral Assay. The note with it: for IC50: measured here: growth of uninfected CEM cells. The procedure, abridged:
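Category rules: moderately active means at least 50% protection on retest, and confirmed active means 100% protection reproducibly. The underlying data came from a formazan growth assay in HIV-1-infected CEM cells.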

`Cc1cc2c(c3nocc13)C(=O)c1ccccc1C2=O`: the result was inactive.

Regarding `CSC1=Nc2ccccc2SC(c2ccccc2)C1c1ccccc1` (configuration not stated), the EC50 was more than 49 µM and the IC50 turned out to be 35.5 µM.

As for `CN1C(=O)OC2CC/C=C\CCC2C1c1ccccc1` (configuration not stated), the outcome was inactive.

On to `C[C@]12CC[C@H]3[C@@H](C[C@@H](O)[C@]45C[C@@H]4CC[C@]35C)[C@@H]1CC[C@@]21C=CC(=O)O1`, for which the EC50 is more than 200 µM and the IC50 was found to be 95.5 µM. Taken in the same sequence, the figures for `COC(=O)c1ccc(NCC2=CC(=O)C=CC2=O)cc1O` were more than 200 µM and 4.47 µM. On to `CC(=O)Nc1ccc(C(=O)NN2C(=O)C(Cl)C2c2ccc(Cl)cc2)cc1` (configuration not stated), for which the EC50 was more than 200 µM and the 50% inhibitory concentration (IC50) was more than 200 µM.

Turning to `Cc1noc(NS(=O)(=O)c2ccc(NC(=O)c3ccc4[nH]c5ccccc5c(=O)c4c3)cc2)c1C`, the EC50 was more than 200 µM and the IC50 amounted to 44.7 µM.

With `O=C1c2ccccc2C(=O)C2OC12` (configuration not stated), the EC50 was more than 20 µM and the IC50 amounted to 0.977 µM. Taken in the same sequence, the figures for `O=C(Nc1cc(C(=O)Nc2cccc(S(=O)(=O)O)c2)cc(C(=O)Nc2cccc(S(=O)(=O)O)c2)c1)c1cccc(C(=O)Nc2cc(C(=O)Nc3cccc(S(=O)(=O)O)c3)cc(C(=O)Nc3cccc(S(=O)(=O)O)c3)c2)c1` were 97.7 µM and more than 100 µM. Taken in the same sequence, the figures for `CCCCCC=C1c2ccccc2C=Cc2ccccc21` were more than 200 µM and 72.4 µM. In the same order, the values of `O=C1CSC(=S)N1Cc1ccncc1` are more than 200 µM and 4.27 µM. With `Cc1ccc(SCC(OCn2cnc3c(N)ncnc32)[C@H](C)F)cc1` (some centres not stated), the EC50 was more than 200 µM and the IC50 worked out at 191 µM.

Take `O=C(CCc1ccccc1)CC1OC(=O)C(Cl)=C1Cl` (configuration not stated): the EC50 is more than 33.1 µM and the IC50 is more than 33.1 µM.

On to `C#CCCCCC#Cc1ccccc1C(=O)OC`, for which the EC50 is more than 151 µM and the IC50 was 28.8 µM. In the same order, the values of `O=C(CNc1cccc([N+](=O)[O-])c1)Nn1c(-c2ccccc2)nc2ccccc2c1=O` are more than 20 µM and 1.05 µM. On to `O=C(O)C1=NN(c2ccc(S(=O)(=O)O)cc2)C(=O)C1N=Nc1ccc(S(=O)(=O)O)cc1` (configuration not stated), for which the outcome was inactive. As to `NC(=O)C(N/N=C(/C(=O)c1ccccc1)c1ccccc1)c1ccccc1` (configuration not stated), the EC50 is more than 200 µM and the IC50 was found to be 44.7 µM. On to `O=C(O)Cn1ncn(NC(=O)Cc2ccccc2)c1=S`, for which the EC50 is more than 200 µM and the IC50 is more than 200 µM.

`COc1cc(C2C3=C(CCCC3=O)N(c3ccc(C)cc3)C3=C2C(=O)CCC3)c([N+](=O)[O-])cc1OC`: the EC50 is more than 200 µM and the IC50 was determined as 145 µM. With `Cn1c(-c2ccccc2)cc(-c2cccs2)c1-c1ccsc1`, the EC50 is more than 200 µM and the IC50 was found to be 182 µM. In the same order, the values of `Cc1nc2c(sc(=S)n2-c2ccccc2)c2nc3ccccc3n12` are more than 2.09 µM and more than 2.09 µM. Taken in the same sequence, the figures for `CCOC(=O)C(=O)Nc1cccc(Cl)c1C` were more than 741 µM and more than 741 µM.

As for `CN(C)c1ccc(/C=C(\C#N)c2ccccc2Br)cc1`, the EC50 was more than 40.7 µM and the IC50 came out at 3.98 µM. Taken in the same sequence, the figures for `CCS(=O)(=O)CCn1cnc2c1c(=O)n(C)c(=O)n2C` were more than 200 µM and more than 200 µM. Taken in the same sequence, the figures for `O=C1CC(c2ccc(Cl)cc2)=Nc2ccccc2N1` were 6.31 µM and 95.5 µM. In the case of `CCOC(=O)CC(CC(=O)OCC)n1cnc2c(N)ncnc21`, the result was inactive. Turning to `NS(=O)(=O)c1ccc(NCc2cccc3c(=O)c4ccc(Cl)cc4oc23)cc1`, the EC50 was more than 100 µM and the IC50 turned out to be 4.07 µM. Taken in the same sequence, the figures for `COc1ccccc1N1CCN(Cn2c(=O)oc3cccnc32)CC1` were more than 200 µM and 60.3 µM. As for `CN(C)/N=N/c1nc2c(c(=O)n(C)c(=O)n2C)n1CC1CO1` (configuration not stated), the EC50 is more than 200 µM and the IC50 came out at 12 µM. With `CC(=O)OCC1OC(Nc2[nH]c(=O)[nH]c(=O)c2N=O)C(OC(C)=O)C(OC(C)=O)C1OC(C)=O` (configuration not stated), the EC50 is more than 200 µM and the IC50 is more than 200 µM. As to `CCOC(=O)C(NC(=O)c1ccccc1)[CH](c1ccc(OC)cc1)[Sn]([c]1ccccc1)([c]1ccccc1)[c]1ccccc1` (configuration not stated), the EC50 was 34.7 µM and the concentration for half-maximal inhibition (IC50) came out at 81.3 µM. In the same order, the values of `O=c1[nH]c(=O)n(C2OC(CO)C(O)C(F)C2O)cc1F` (configuration not stated) are 186 µM and more than 200 µM. In the same order, the values of `CC(=O)O[C@@H]1[C@H]2O[C@H]2[C@H]2O[C@@]2(COC(=O)c2ccccc2)[C@H]1OC(C)=O` are more than 200 µM and 91.2 µM. Regarding `Oc1cc(Cl)c(Cl)cc1Cl`, the outcome was inactive. Regarding `O=c1c(Br)cc2nc3ccccc3sc-2c1Br`, the EC50 was more than 10 µM and the IC50 was more than 10 µM.

Regarding `Cc1ccc2c(c1)C(c1ccccc1)C1COC(=O)C1O2` (configuration not stated), the EC50 was more than 93.3 µM and the IC50 stood at 5.25 µM. Take `NC(N)=NS(=O)(=O)c1ccc(NC(=O)c2cccc3c(=O)c4ccccc4[nH]c23)cc1`: the result was inactive. As to `CC1OC(n2cc(F)c(=O)[nH]c2=O)C=CC1=O` (configuration not stated), the EC50 was more than 1050 µM and the half-inhibitory concentration (IC50) turned out to be 14.1 µM. With `Cc1cc(NS(=O)(=O)c2ccc(Nc3c4ccccc4nc4c(C(=O)N5CCN(CCO)CC5)ccc(Cl)c34)cc2)no1`, the EC50 was more than 47.9 µM and the IC50 was more than 47.9 µM. Turning to `CC(C)(C)C1(C#N)C(=O)N(c2ccc(Cl)cc2)C12c1ccccc1-c1ccccc12` (configuration not stated), the EC50 was more than 9.12 µM and the IC50 is more than 9.12 µM. Consider `O=C(O)c1nn(-c2ccccn2)c(O)c1N=Nc1ccc(/C=C\c2ccc(N=Nc3c(C(=O)O)nn(-c4ccccn4)c3O)cc2S(=O)(=O)O)c(S(=O)(=O)O)c1`, for which the EC50 is more than 1.48 µM and the IC50 is more than 1.48 µM.

`CS(=O)(=O)NNS(=O)(=O)c1ccc(F)cc1`: the EC50 was more than 251 µM and the IC50 was more than 251 µM. As for `N#C/C(=C1/c2cc([N+](=O)[O-])ccc2-c2c1cc([N+](=O)[O-])cc2[N+](=O)[O-])N1CCCCC1`, the EC50 was more than 200 µM and the IC50 was more than 200 µM. As to `CN(C)CCNC(=O)c1cccc2c1Oc1cccc([N+](=O)[O-])c1O2`, the EC50 was more than 200 µM and the IC50 is 22.4 µM. Consider `CCOC(=O)CCC(NC(=O)OCc1ccccc1)C(=O)NC(CCC(=O)OCC)C(=O)NC(CCC(=O)OCC)C(=O)NC(CCC(=O)OCC)C(=O)NC(CCC(=O)OCC)C(=O)NC(CCC(=O)OCC)C(=O)NC(CCC(=O)OCC)C(=O)NC(CCC(=O)OCC)C(=O)NC(CCC(=O)OCC)C(=O)NC(CCC(=O)OCC)C(=O)NC(CCC(=O)OCC)C(=O)NC(CCC(=O)OCC)C(=O)OCC` (configuration not stated), for which the outcome was inactive. On to `CC(OC(C)(C)C)[C@H](NC(=O)OC(C)(C)C)C(=O)O` (some centres not stated), for which the EC50 was more than 275 µM and the IC50 is more than 275 µM. On to `C/C(=C\C(=O)OCCCCCCCC(=O)NC1CCCNC1=O)C[C@@H]1OC[C@H](C/C=C/[C@@H](C)[C@H](C)O)[C@@H](O)[C@H]1O` (some centres not stated), for which the outcome was inactive. For `CC(=O)OCC1OC(N2C(C)=C(C(C)=O)C(c3ccc(Cl)cc3)C(C#N)=C2S)C(OC(C)=O)C(OC(C)=O)C1OC(C)=O` (configuration not stated), the EC50 is more than 200 µM and the IC50 came out at 29.5 µM. In the same order, the values of `NC(Cc1ccccc1)C(=O)N[C@H]1c2ccsc2/C(=N/O)[C@H]1O` (some centres not stated) are more than 200 µM and more than 200 µM. Taken in the same sequence, the figures for `CCOC(=O)NC(=S)NC(C)c1ccccc1` (configuration not stated) were more than 200 µM and 115 µM. In the same order, the values of `CC1(C)CC2(C)CC1CC2NC(=O)CCN1CCOCC1` (configuration not stated) are more than 851 µM and 676 µM.

As for `c1ccc(CNc2ccc3[nH]c4cnccc4c3c2)cc1`, the EC50 was more than 251 µM and the IC50 amounted to 36.3 µM. As to `CCCCc1c2c([n+]([O-])c3c1CCCC3)CCCC2`, the EC50 is more than 138 µM and the IC50 stood at 22.4 µM. Take `Cc1ccc(/C=C(\C#N)C(=O)c2ccccc2)cc1`: the EC50 was more than 145 µM and the IC50 worked out at 102 µM. With `CN(C)CCSc1cccc(-c2cc(-c3cccs3)nc(SCCN(C)C)n2)c1`, the EC50 was more than 282 µM and the IC50 amounted to 2.24 µM. For the molecule `Cc1nc(Nc2ccccc2Cl)c2ccsc2n1`, the result was inactive. On to `C=CCCC(C)N(C(=O)OC(C)(C)C)S(=O)(=O)c1ccc(C)cc1` (configuration not stated), for which the EC50 was more than 14.8 µM and the IC50 was more than 14.8 µM.

As to `COc1ccc(NS(=O)c2ccc(-c3ccccc3)cc2)cc1` (configuration not stated), the EC50 is more than 200 µM and the IC50 was 14.8 µM.

Regarding `CC1(c2ccc(F)cc2)OC(=O)c2c1ccc1ccccc21` (configuration not stated), the outcome was inactive. For `COc1ccc2c(c1)c1ccc3c(c1n2C)C(=O)C=CC3=O`, the EC50 was more than 89.1 µM and the IC50 turned out to be 2.95 µM. On to `Cc1ccc2nc(Nc3ccccc3C)c(Nc3ccccc3C)nc2c1`, for which the result was inactive. On to `CC(=O)Nc1cc2ccc(C)nc2c2nc(C)ccc12.CC(=O)Nc1cc2ccc(C)nc2c2nc(C)ccc12.O=C1OC(C(O)C[O-])C(O)=C1O.[Cu+]`, for which the EC50 is more than 12.6 µM and the IC50 is 2.09 µM. In the case of `O=C(N=Nc1cc(Cl)ccc1Cl)NNc1cc(Cl)ccc1Cl`, the EC50 was more than 200 µM and the IC50 came out at 11.2 µM.

Turning to `CC1=CC(=C(c2ccc(N)c(S(=O)(=O)O)c2)c2ccc(N)c(S(=O)(=O)O)c2)C=C(S(=O)(=O)O)C1=N`, the result was inactive. As to `CC1C=C2c3ccccc3CC2C2C(=O)OC(=O)C12` (configuration not stated), the EC50 was more than 200 µM and the IC50 was more than 200 µM. Regarding `COc1ccc(C2NCCc3c2[nH]c2ccccc32)cc1` (configuration not stated), the outcome was inactive. As to `C/C=N\n1c(C)n[nH]c1=O`, the EC50 was more than 200 µM and the IC50 was more than 200 µM. As to `CC1=C(C#N)C(=O)OC1(C)C(CC(=O)c1ccccc1)c1ccccc1` (configuration not stated), the EC50 was more than 200 µM and the IC50 was 8.32 µM. Turning to `Cc1ccc(S(=O)(=O)c2c(N)c3nc4ccccc4n3c3nc4ccccc4nc23)cc1`, the EC50 was more than 4.57 µM and the IC50 was more than 4.57 µM. For `O=C(O)CSCCCCSCC(=O)O`, the EC50 is more than 1050 µM and the 50% inhibitory concentration (IC50) is more than 1050 µM.

By EC50 is commonly meant the concentration needed to bring the measured effect to its halfway point. Broadly, the IC50 is the concentration that inhibits the measured activity by half.
